{
  "source": "the supplement of paper PMC6723410",
  "data": [
    {"tested_on": "GUMC-403", "assay": "viability at highest tested concentration (max response) relative to DMSO (% of DMSO control); higher = less cytotoxic", "conditions": "library / dose series: MIPE library, 11-point 1:3 dilution; top concentration 46.1 µM; 48 h", "in_short": "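In 1536-well plates, 700 GUMC-403 papilloma cells per well, taken from a patient and grown by conditional reprogramming, were seeded in 5 μL F + Y medium and incubated overnight at 37 °C. Compounds were pinned in at 23 nL in an 11-point 1:3 series, and left for 48 h before CellTiter-Glo luminescence was read on a ViewLux against vehicle (100%) and empty (0%) wells. Reported values are viability at the highest tested concentration relative to vehicle control.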", "values": [
      {"smiles": "O=C(c1ccc(C(=O)N2CCC(N3CCCC3)CC2)c(Nc2ccccc2)c1)N1CCC(N2CCCC2)CC1", "viability": 109},
      {"smiles": "CCOC(=O)Nc1ccc(NCc2ccc(F)cc2)nc1N", "viability": 102},
      {"smiles": "OCCn1cc(-c2ccc3c(c2)CC/C3=N\\O)c(-c2ccncc2)n1", "viability": 94.5},
      {"smiles": "CCOC(=O)N[C@@H]1CC[C@@H]2[C@@H](C1)C[C@H]1C(=O)O[C@H](C)[C@H]1[C@H]2/C=C/c1ccc(-c2cccc(F)c2)cn1", "viability": 123},
      {"smiles": "CCCCCCCc1ccc(CCc2cccc(O)c2C(=O)O)cc1", "viability": 108},
      {"smiles": "CC(C)OC(=O)C(C(=O)OC(C)C)=C1S\\C=C/S1", "viability": 104},
      {"smiles": "C[C@]12CC[C@@H]3c4ccc(O)cc4CC[C@H]3[C@@H]1CC[C@@H]2O", "viability": 86.3},
      {"smiles": "FC(F)(F)c1ccc(/C=C/c2nc(COc3ccc(CCCCn4ccnn4)cc3)co2)cc1", "viability": 98.1},
      {"smiles": "COc1nc(-c2ccc3c(c2)OCO3)n(-c2ccc(NC(=O)CSc3ccccc3)cc2)n1", "viability": 101},
      {"smiles": "O=C(O)c1ccc(-n2nc(-c3ccccc3O)nc2-c2ccccc2O)cc1", "viability": 80.9},
      {"smiles": "CCCCCCCCOc1ccccc1C(=O)Nc1ccc(C(=O)OCC[N+](C)(CC)CC)cc1", "viability": 104},
      {"smiles": "O=C1CCC(N2C(=O)c3ccccc3C2=O)C(=O)N1", "note": "(stereo unspecified)", "viability": 92},
      {"smiles": "NC1CCC(Nc2nc(Nc3ccc(C(=O)N4CCCCC4)cc3)c3ncn(-c4cccc(F)c4)c3n2)CC1", "note": "(stereo unspecified)", "viability": 86},
      {"smiles": "O=C(NCCO[N+](=O)[O-])c1cccnc1", "viability": 108},
      {"smiles": "N[C@@H](CC(=O)N1CCn2c(nnc2C(F)(F)F)C1)Cc1cc(F)c(F)cc1F", "viability": 97.9},
      {"smiles": "NC/1=N/C(=O)C2=C(N1)[N](C=N2)[C@@H]3C[C@H](O)[C@@H](CO)C3=C", "viability": 100},
      {"smiles": "CCc1ccc(C(=O)Nc2cc(CN3CCN(C)CC3)cc(C(F)(F)F)c2)cc1C#Cc1cnc2ccnn2c1", "viability": 119},
      {"smiles": "CCC(C)CCCCC(=O)N[C@@H](CCN)C(=O)NC(C(=O)N[C@H](CCN)C(=O)N[C@@H]1CCNC(=O)C([C@@H](C)O)NC(=O)[C@@H](CCN)NC(=O)[C@@H](CCN)NC(=O)[C@@H](CC(C)C)NC(=O)[C@H](Cc2ccccc2)NC(=O)[C@H](CCN)NC1=O)[C@@H](C)O", "note": "(stereo partly specified)", "viability": 126},
      {"smiles": "OC1=CC2=C(C=C1)C(=O)\\C(=C(O2)\\C3=CC(=C(O)C=C3)O)O", "viability": 72.6},
      {"smiles": "CC[C@H](NC(C)C)[C@H](O)c1ccc(O)c2[nH]c(=O)ccc12", "viability": 123},
      {"smiles": "CCCC(CCC)C(=O)[O-]", "viability": 88.8},
      {"smiles": "O=C([O-])[C@H](CC(=O)N1C[C@H]2CCCC[C@H]2C1)Cc1ccccc1", "viability": 144},
      {"smiles": "O=C(/C=C/c1ccc(O)cc1)c1ccc(O)cc1O", "viability": 77},
      {"smiles": "O=C(O)COCCN1CCN(C(c2ccccc2)c2ccc(Cl)cc2)CC1", "note": "(stereo unspecified)", "viability": 117},
      {"smiles": "NC(=O)c1cnc(-c2ccc(C3(N)CCC3)cc2)c(-c2ccccc2)c1", "viability": 103},
      {"smiles": "O=C1NC(=O)/C(=C/c2ccc(-c3ccc(F)cc3O)o2)S1", "viability": 83},
      {"smiles": "CCCCOCCOc1nc(-c2ccc(C(=O)O)c(F)c2)sc1C", "viability": 105},
      {"smiles": "C[C@@]12C[C@@]3(O)O[C@@H](O1)[C@]1(COC(=O)c4ccccc4)[C@H]3C[C@@]12O[C@@H]1O[C@H](CO)[C@@H](O)[C@H](O)[C@H]1O", "viability": 115},
      {"smiles": "Cn1c(CCCC(=O)O)nc2cc(N(CCCl)CCCl)ccc21", "viability": 124},
      {"smiles": "N#Cc1ccc(NC(=O)Nc2ccccc2Br)c2nn[nH]c12", "viability": 129},
      {"smiles": "OC(=O)C(CC/1=C/C(=O)NC2=CC=CC=C12)NC(=O)C3=CC=C(Cl)C=C3", "note": "(stereo unspecified)", "viability": 132},
      {"smiles": "C=CCc1cccc(/C=N/NC(=O)CN2CCN(Cc3ccccc3)CC2)c1O", "viability": 73.5},
      {"smiles": "COC1=C(N2CCNC(C)C2)C(=CC3=C1N(\\C=C(C(O)=O)/C3=O)C4CC4)F", "note": "(stereo unspecified)", "viability": 120},
      {"smiles": "Cc1cc(Nc2cc(CN3CCOCC3)c3nc(C)c(Cc4ccc(Cl)cc4F)n3n2)[nH]n1", "viability": 74.1},
      {"smiles": "CC(C)OC1=CC=C2C(=C1)O\\C=C(/C2=O)C3=CC=CC=C3", "viability": 111},
      {"smiles": "NCCS(=O)(=O)O", "viability": 123},
      {"smiles": "CCNC(=O)CCC/C=C\\C[C@@H]1[C@@H](/C=C/C(O)CCc2ccccc2)[C@@H](O)C[C@@H]1O", "note": "(stereo partly specified)", "viability": 109},
      {"smiles": "CCC1=C[C@@H]2CN(C1)Cc1c([nH]c3ccccc13)[C@@](C(=O)OC)(c1cc3c(cc1OC)N(C)[C@H]1[C@@](O)(C(=O)OC)[C@H](OC(C)=O)[C@]4(CC)C=CCN5CC[C@]31[C@@H]54)C2", "viability": 89.9},
      {"smiles": "CC/C(=C(/CC)c1ccc(O)cc1)c1ccc(O)cc1", "viability": 84.8},
      {"smiles": "Cc1cc(OCCC[S+](C)(=O)[O-])cc(C)c1-c1cccc(COc2ccc3c(c2)OC[C@H]3CC(=O)O)c1", "viability": 112},
      {"smiles": "CNC(=O)N1\\N=C(\\C2=CC=C(N)C=C2)C3=CC4=C(OCO4)C=C3CC1C", "note": "(stereo unspecified)", "viability": 107},
      {"smiles": "C[C@H]1C[C@@H]2[C@H](CC[C@@]3(C)[C@H]2CC[C@]3(OC(C)=O)C(C)=O)[C@@]\\4(C)CCC(=O)\\C=C14", "viability": 147},
      {"smiles": "CC(C)(N)C(=O)N[C@H](COCc1ccccc1)C(=O)N1CCC2(CC1)CN([S+](C)(=O)[O-])c1ccccc12", "viability": 103},
      {"smiles": "C[C@@H]1[C@H](O)[C@@H](C)C=CC=CCCC=CC=CC=CC=C[C@H](O[C@H]2O[C@@H](C)[C@H](O)[C@@H](N)[C@H]2O)CC2O[C@](O)(C[C@@H](O)[C@H](O)CC[C@@H](O)C[C@@H](O)C[C@@H](O)CC(=O)O[C@H]1C)C[C@H](O)[C@H]2C(=O)O", "viability": 115},
      {"smiles": "CN(C)CCOC(c1ccccc1)c1ccccc1", "viability": 120},
      {"smiles": "O=C(CCc1ccc(O)cc1)c1c(O)cc(O)cc1O", "viability": 107},
      {"smiles": "CCOc1cc(/C=C2/C(=O)N(c3ccccc3)N=C2C)cc(Cl)c1OCC(=O)OC", "viability": 99.2},
      {"smiles": "CO[C@H]1O[C@@H]2O[C@@]3(C)CC[C@H]4[C@H](C)CC[C@@H]([C@H]1C)[C@@]24OO3", "viability": 116},
      {"smiles": "O=C(Nc1ncc(SCCN2CCCC2)s1)[C@]1(c2ccc([S+](=O)([O-])C3CC3)cc2)C[C@H]1C1CCCCC1", "viability": 108},
      {"smiles": "O=C(CCCCCCC(=O)Nc1cccnc1)NO", "viability": 111},
      {"smiles": "COc1ccc(N(C(=O)Oc2c(C)cccc2C)c2ccnc(Nc3ccc(N4CCN(C)CC4)cc3)n2)c(OC)c1", "viability": 83.2},
      {"smiles": "CCc1ccc(/C=C2/SC(=S)NC2=O)cc1", "viability": 106},
      {"smiles": "OC[C@H]1O[C@@H](OCCc2ccc(O)cc2)[C@H](O)[C@@H](O)[C@@H]1O", "viability": 107},
      {"smiles": "Cc1coc2c1C(=O)C(=O)c1c-2ccc2c(C)cccc12", "viability": 115},
      {"smiles": "O=C1c2c(O)cccc2[C@H]([C@@H]2O[C@H](CO)[C@@H](O)[C@H](O)[C@H]2O)c2cc(CO)cc(O)c21", "viability": 119},
      {"smiles": "CN1CCN(CCCN2c3ccccc3Sc3ccc(C(F)(F)F)cc32)CC1", "viability": 79.1},
      {"smiles": "N=C(N)NC(=N)N1CCOCC1", "viability": 132},
      {"smiles": "COC(=O)Nc1nc2cc(Sc3ccccc3)ccc2[nH]1", "viability": 95.8},
      {"smiles": "CCN1CCN(C(=O)Cc2ccc(Nc3ncc(F)c(Nc4ccc(C(=O)Nc5ccccc5Cl)cc4)n3)cc2)CC1", "viability": 55.5},
      {"smiles": "O=C(O)Cc1cccc(OCCCN(Cc2cccc(C(F)(F)F)c2Cl)CC(c2ccccc2)c2ccccc2)c1", "viability": 136},
      {"smiles": "CO/N=C(\\C(=O)N[C@@H]1C(=O)N2C(C(=O)OCOC(=O)C(C)(C)C)=C(/C=C\\c3scnc3C)CS[C@H]12)c1csc(N)n1", "viability": 137}
    ]}
  ]
}
